System: adult T. muris
Assay: Ex vivo adult T. muris automated motility assay (primary/secondary screen at 100 μM and dose-response)
Parameters: species or system Trichuris muris
Conditions: for PRIMARY_SCREEN_MINUS_LOG_FOLD_CHANGE_MOVEMENT: primary screen; for PRIMARY_SCREEN_MINUS_LOG_FOLD_CHANGE_MOVEMENT / SECONDARY_SCREEN_MINUS_LOG_FOLD_CHANGE_MOVEMENT: adult T. muris motility; for SECONDARY_SCREEN_MINUS_LOG_FOLD_CHANGE_MOVEMENT: secondary screen
Description: Severe combined immune deficiency (SCID) mice were bred in the Biological Services Facility at the University of Manchester. Both male and female SCID mice were infected with a high dose of 200 infective embryonated T. muris eggs via oral gavage. At day 35 post-infection, groups of 5 mice were killed and their […] colons removed. Guts were opened longitudinally, washed with pre-warmed Roswell Park Memorial Institute (RPMI) 1640 media supplemented with penicillin (500U/ml) and streptomycin (500μg/ml) and adult T. muris worms gently removed using fine forceps. Worms removed from SCID mice were maintained in RPMI-1640 media supplemented with penicillin (500U/ml) and streptomycin (500μg/ml) at approximately 37°C and studied on the same day. Using fine forceps, individual live worms were placed into 96 well plates containing 75μl of RPMI-1640 medium supplemented with penicillin (500U/ml) and streptomycin (500μg/ml) plus 1% final concentration of DMSO or compound dissolved in DMSO. In the primary screen the test compound concentration was 100μM. Plates were then incubated at 37°C, 5% CO2, and motility was analysed after 24 hours. Worm movement was quantified using an automated motility assay. This system gives an estimate of worm movement in each well by thresholding and quantifying pixel intensity variance over time. An earlier version of this system has been previously described. One adult T. muris worm was used per well, with one well per compound in each replicate of the primary screen. The primary screen was repeated each week for a period of four weeks giving four independent biological replicates from separate parasite batches for each compound. Dose-response curves were calculated with the four factor log-logistic model using the R package drc. The primary screen was carried out at 100μM final concentration. Assay plates were assigned unique IDs and statistical analysis was performed without knowledge of compound identities using R scripts. Once hit wells were identified, well/plate positions were mapped to compound identities using DataWarrior [28]. […] Compounds identified as having encouraging activity from the DMSO solution samples were then resynthesized for confirmatory testing.

[1] = combined primary and secondary screen minus log fold change in movement, adult T. muris, 100 μM
[2] = adult T. muris motility screen at 100 μM, combines primary and secondary screen minus log fold change in movement (mean where both are given)

SMILES | COMBINED_SCREEN_ACTIVITY [1] | PRIMARY_SCREEN_MINUS_LOG_FOLD_CHANGE_MOVEMENT (100 μM) | COMBINED_SCREEN_ACTIVITY [2] | SECONDARY_SCREEN_MINUS_LOG_FOLD_CHANGE_MOVEMENT (100 μM)
O=C(O)c1cccc(-c2ccc3c(c2)N(CC2CC2)C(=O)COC3)c1 [Compound 62] | -1.551 | -1.551 |  | 
COCCN1C(=O)COCc2ccc(-c3cc(F)cc(Cl)c3)cc21 [Compound 84] | 0.4605 | 0.4605 |  | 
O=C1COCc2ccc(-c3cccc(O)c3)cc2N1CCc1ccccc1 [Compound 99] | -1.58 | -1.58 |  | 
Cc1ccc(CN2C(=O)COCc3cc(-c4cccc(O)c4)ccc32)cc1 [Compound 98] | -1.09 | -1.09 |  | 
O=C1COCc2ccc(Br)cc2N1CCc1ccccc1 [Compound 80] | 10.5493 | 10.5493 |  | 
O=C1COCc2ccc(-c3ccccc3)cc2N1CC1CC1 [Compound 24] | 7.227 | 7.227 |  | 
O=C1COCc2c(Br)cccc2N1Cc1ccccc1 [Compound 55] | 1.386 | 1.386 |  | 
O=C1COCc2ccc(-c3cccc(F)c3)cc2N1CC1CC1 [Compound 35] | 10.5493 | 10.5493 |  | 
Cc1ccc(CN2C(=O)COCc3cc(-c4cccc(C#N)c4)ccc32)cc1 [Compound 115] | -2.656 | -2.656 |  | 
CC(=O)Nc1cccc(-c2ccc3c(c2)N(Cc2cc(F)cc(F)c2)C(=O)COC3)c1 [Compound 185] |  | 10.5493 | 6.728 | 2.906
Cc1ccc(CN2C(=O)COCc3cc(-c4cccc(CO)c4)ccc32)cc1 [Compound 123] | -0.1619 | -0.1619 |  | 
COc1cccc(CN2C(=O)COCc3cc(-c4ccc(OC)nc4)ccc32)c1 [Compound 143] | -1.1304 | -1.1304 |  | 
Cc1ccc(-c2cccc3c2COCC(=O)N3C)cc1C [Compound 11] | -0.1315 | -0.1315 |  | 
COc1cccc(CN2C(=O)COCc3ccc(-c4ccccc4)cc32)c1 [Compound 101] | -0.6789 | -0.6789 |  | 
O=C1COCc2cc(Br)ccc2N1Cc1ccccc1 [Compound 54] | 0.1915 | 0.1915 |  | 
COc1ccccc1-c1ccc2c(c1)N(CC1CC1)C(=O)COC2 [Compound 42] | 1.209 | 1.209 |  | 
COc1ccccc1-c1ccc2c(c1)N(Cc1ccccc1Cl)C(=O)COC2 [Compound 151] | -1.249 | -1.249 |  | 
COc1cc(F)ccc1-c1ccc2c(c1)COCC(=O)N2Cc1ccccc1 [Compound 128] | 3.2501 | 3.2501 |  | 
Cn1cc(-c2ccc3c(c2)N(CC2CCCCC2)C(=O)COC3)cn1 [Compound 68] | -0.9119 | -0.9119 |  | 
COCCN1C(=O)COCc2ccc(-c3cccc(NC(C)=O)c3)cc21 [Compound 88] | -0.1104 | -1.635 |  | 1.414
COCCN1C(=O)COCc2ccc(-c3ccccc3C)cc21 [Compound 36] | -1.658 | -1.658 |  | 
COc1ccc(F)cc1-c1ccc2c(c1)N(CC1CC1)C(=O)COC2 [Compound 69] | 11.5841 | 10.5493 |  | 12.6188

SMILES | COMBINED_SCREEN_ACTIVITY [1] | PRIMARY_SCREEN_MINUS_LOG_FOLD_CHANGE_MOVEMENT (100 μM) | COMBINED_SCREEN_ACTIVITY [2] | SECONDARY_SCREEN_MINUS_LOG_FOLD_CHANGE_MOVEMENT (100 μM)
CCCN1C(=O)COCc2cc(Br)ccc21 [Compound 16] | -2.129 | -2.129 |  | 
O=C1COCc2ccccc2N1Cc1ccccc1Cl [Compound 21] | -1.647 | -1.647 |  | 
COCCN1C(=O)COCc2ccc(-c3ccc(F)c(Cl)c3)cc21 [Compound 83] | 1.936 | 1.936 |  | 
O=C1COCc2ccc(-c3ccc(Cl)cc3)cc2N1CC1CC1 [Compound 47] | 1.5592 | 1.5592 |  | 
COCCN1C(=O)COCc2ccc(-c3cc(F)cc(F)c3)cc21 [Compound 56] | -1.686 | -1.686 |  | 
O=C1COCc2ccc(-c3cccnc3)cc2N1CCN1CCOCC1 [Compound 86] | -1.564 | -1.564 |  | 
Cc1ccccc1-c1cccc2c1COCC(=O)N2C [Compound 8] | -0.9498 | -0.9498 |  | 
CC(C)c1cccc(-c2ccc3c(c2)COCC(=O)N3Cc2ccc(C(=O)N(C)C)cc2)c1 [Compound 190] |  | 10.3993 | 11.0091 | 11.6188
COCCN1C(=O)COCc2ccc(-c3cccc(COC)c3)cc21 [Compound 71] | -1.553 | -1.553 |  | 
CN1C(=O)COCc2c(-c3ccc(F)c(Cl)c3)cccc21 [Compound 33] | 1.432 | 1.432 |  | 
COc1ccc(-c2ccc3c(c2)N(CC2CC2)C(=O)COC3)cc1 [Compound 43] | 3.877 | 3.877 |  | 
O=C1COCc2ccc(-c3cccc(CO)c3)cc2N1CC1CC1 [Compound 41] | -1.108 | -1.108 |  | 
CC(=O)Nc1cccc(-c2ccc3c(c2)N(Cc2ccccc2)C(=O)COC3)c1 [Compound 137] | 5.935 | 5.935 |  | 
CCN(CC)C(=O)c1cccc(-c2ccc3c(c2)N(Cc2ccccc2C)C(=O)COC3)c1 [Compound 191] |  | 10.7743 | 10.9041 | 11.0339
COCCN1C(=O)COCc2ccc(-c3cccc(C(F)(F)F)c3)cc21 [Compound 108] | -0.2552 | -0.2552 |  | 
COc1ccc(-c2ccc3c(c2)N(CCN2CCOCC2)C(=O)COC3)c(C)c1 [Compound 157] | -1.37 | -1.37 |  | 
COc1ccccc1-c1cccc2c1COCC(=O)N2Cc1ccccc1 [Compound 94] | 10.5493 | 10.5493 |  | 
COc1ccc(F)cc1-c1ccc2c(c1)N(CCc1ccccc1)C(=O)COC2 [Compound 147] | 0.4002 | 0.4002 |  | 
O=C1COCc2ccc(-c3ccccc3)cc2N1CCN1CCOCC1 [Compound 85] | 0.2067 | 0.2067 |  | 
O=C1COCc2cc(-c3ccncc3)ccc2N1Cc1ccccc1 [Compound 52] | 0.9757 | 0.9757 |  | 
O=C1COCc2cc(-c3cccnc3)ccc2N1CCc1ccccc1 [Compound 73] | 3.006 | 3.006 |  | 
COc1ccccc1-c1ccc2c(c1)COCC(=O)N2Cc1ccccc1 [Compound 95] | -1.179 | -1.179 |  | 

— article PMC5321434, “Dihydrobenz[e][1,4]oxazepin-2(3H)-ones, a new anthelmintic chemotype immobilising whipworm and reducing infectivity in vivo” (PLoS Neglected Tropical Diseases, 2017)
